Test system: Mild to Moderate Osteoarthritis of the Knee
Assay: Phase 2 study: WOMAC difficulty performing daily activities subscale score
Assay type: in vivo, human
Conditions: for Change of WOMAC Difficulty performing daily activities score from baseline (±SEM) / Percentage of improvement from baseline, WOMAC Difficulty performing daily activities score: all patients taken as active
Description: This is a Phase 2, multicenter, randomized, double blind (within dose), placebo controlled, parallel group, proof of concept, and dose range finding study to evaluate the efficacy, safety, and PK of 2-(diethylamino)ethyl 2-(4-isobutylphenyl)propionate hydrochloride spray in adult subjects with clinically symptomatic mild to moderate OA of the knee. For subjects with bilateral knee pain, both knees will be treated, but the most symptomatic knee (i.e., the most painful knee as measured by the Western Ontario and McMaster University Osteoarthritis Index [WOMAC® 3.1] pain subscale score at Screening) will be designated as the target knee for efficacy analyses. For subjects with unilateral knee pain, only the symptomatic (target) knee will be treated.
After a Screening Period of up to 3 weeks and radiographic evaluation of the target knee joint space, a subject will be randomly assigned to 1 of 3 treatment groups in a 1:1:1 ratio with a 2:1 ratio of active:placebo within each treatment group (ie, 2 subjects to active treatment and 1 subject to placebo): • Group A: 8.75 mg 2-(diethylamino)ethyl 2-(4-isobutylphenyl)propionate/knee (2 sprays/knee, one spray to the medial surface and one spray to the lateral surface of the knee), twice daily (BID, approximately every 12 hours; n=50) or placebo (2 sprays/knee), BID (approximately every 12 hours; n=25) for a total of 4 sprays per knee per day; • Group B: 17.5 mg 2-(diethylamino)ethyl 2-(4-isobutylphenyl)propionate/knee (4 sprays/knee, one spray to the medial surface and one spray to the lateral surface of the knee, and one spray to front and one spray to the back of the knee), BID (approximately every 12 hours; n=50) or placebo (4 sprays/knee), BID (approximately every 12 hours; n=25) for a total of 8 sprays per knee per day; • Group C: 35 mg 2-(diethylamino)ethyl 2-(4-isobutylphenyl)propionate/knee (8 sprays/knee, each spray is to be applied to a different non-overlapping area around the knee, and the areas are to be uniformly distributed around the knee), BID (approximately every 12 hours; n=50) or placebo (8 sprays/knee), BID (approximately every 12 hours; n=25) for a total of 16 sprays per knee per day.
The VAS version of the WOMAC will be used for the Primary and Secondary Efficacy Endpoints. Efficacy endpoints will be assessed at Screening and Baseline (Day 1) and at the Week 2, Week 4, Week 8, and Week 12/EOS visits.
3.9.2. Secondary Efficacy Endpoints: • 1. Change from Baseline in the WOMAC (VAS) pain subscale score for the target knee at 2, 4, and 8 weeks of treatment; • 2. Change from Baseline in the WOMAC (VAS) stiffness subscale scores for the target knee and WOMAC (VAS) functional ability subscale scores at 2, 4, 8, and 12 weeks of treatment; • 3. Change from Baseline in the overall WOMAC (VAS) score at 2, 4, 8, and 12 weeks of treatment.
The Secondary Efficacy Endpoints, change from Baseline in the WOMAC subscale scores for pain, stiffness, and functional ability, and overall WOMAC score at 2, 4, 8, and 12 weeks of treatment, will be analyzed using the same methods as for the Primary Efficacy Endpoint.
To determine this, we assumed that all patients received 2-(diethylamino)ethyl 2-(4-isobutylphenyl)propionate, active drug treatment (i.e. all patients who received 2-(diethylamino)ethyl 2-(4-isobutylphenyl)propionate or placebo treatment for 12 weeks or mixed up treatment during the 12-week treatment, as 2-(diethylamino)ethyl 2-(4-isobutylphenyl)propionate-treated). Based on this assumption, that is, to treat this trial as an open-label study and that all patients received active treatment, we conducted efficacy analysis using top-line efficacy datasets prepared by CRO and the re-analysis results are presented in the following tables (Tables 29-47). […] (William G. Bensen, Justus J. Fiechtner, James 1. McMillen, et. al. Treatment of Osteoarthritis with Celecoxib. Mayo Clin Proc, November 1999. Vol 74, 1095-1105.)

[1] = 8.75 mg/knee (BID), Follow up (week 13, day 91)
[2] = 8.75 mg/knee (BID), Week 2 (day 14)
[3] = 8.75 mg/knee (BID), Week 4 (day 28)
[4] = 8.75 mg/knee (BID), Week 8 (day 56)
[5] = 8.75 mg/knee (BID), Week 12 (day 84)
[6] = 17.5 mg/knee (BID), Follow up (week 13, day 91)
[7] = 17.5 mg/knee (BID), Week 2 (day 14)
[8] = 17.5 mg/knee (BID), Week 4 (day 28)
[9] = 17.5 mg/knee (BID), Week 8 (day 56)
[10] = 17.5 mg/knee (BID), Week 12 (day 84)
[11] = 35 mg/knee (BID), Follow up (week 13, day 91)
[12] = 35 mg/knee (BID), Week 2 (day 14)
[13] = 35 mg/knee (BID), Week 4 (day 28)

CCN(CC)CCOC(=O)C(C)c1ccc(CC(C)C)cc1 (stereo not shown) [2-(diethylamino)ethyl 2-(4-isobutylphenyl)propionate]
Change of WOMAC Difficulty performing daily activities score from baseline (±SEM), adjusted by […] of the Testing Drug Amount [1]: −34.6(±5.8) mm | Percentage of improvement from baseline, WOMAC Difficulty performing daily activities score, adjusted by […] of the Testing Drug Amount [1]: −57.6% | Change of WOMAC Difficulty performing daily activities score from baseline (±SEM) [1]: −20.3(±3.4) mm | Percentage of improvement from baseline, WOMAC Difficulty performing daily activities score [1]: −33.6% | Change of WOMAC Difficulty performing daily activities score from baseline (±SEM), adjusted by […] of the Testing Drug Amount [2]: −18.2(±4.4) mm | Percentage of improvement from baseline, WOMAC Difficulty performing daily activities score, adjusted by […] of the Testing Drug Amount [2]: −30.0% | Change of WOMAC Difficulty performing daily activities score from baseline (±SEM) [2]: −10.6(±2.6) mm | Percentage of improvement from baseline, WOMAC Difficulty performing daily activities score [2]: −17.5% | Change of WOMAC Difficulty performing daily activities score from baseline (±SEM), adjusted by […] of the Testing Drug Amount [3]: −28.1(±5.1) mm | Percentage of improvement from baseline, WOMAC Difficulty performing daily activities score, adjusted by […] of the Testing Drug Amount [3]: −46.7% | Change of WOMAC Difficulty performing daily activities score from baseline (±SEM) [3]: −16.4(±3.0) mm | Percentage of improvement from baseline, WOMAC Difficulty performing daily activities score [3]: −27.2% | Change of WOMAC Difficulty performing daily activities score from baseline (±SEM), adjusted by […] of the Testing Drug Amount [4]: −33.1(±5.3) mm | Percentage of improvement from baseline, WOMAC Difficulty performing daily activities score, adjusted by […] of the Testing Drug Amount [4]: −54.9% | Change of WOMAC Difficulty performing daily activities score from baseline (±SEM) [4]: −19.3(±3.1) mm | Percentage of improvement from baseline, WOMAC Difficulty performing daily activities score [4]: −32.0% | Change of WOMAC Difficulty performing daily activities score from baseline (±SEM), adjusted by […] of the Testing Drug Amount [5]: −35.3(±5.8) mm | Percentage of improvement from baseline, WOMAC Difficulty performing daily activities score, adjusted by […] of the Testing Drug Amount [5]: −58.5% | Change of WOMAC Difficulty performing daily activities score from baseline (±SEM) [5]: −20.6(±3.4) mm | Percentage of improvement from baseline, WOMAC Difficulty performing daily activities score [5]: −34.1% | Change of WOMAC Difficulty performing daily activities score from baseline (±SEM), adjusted by […] of the Testing Drug Amount [6]: −39.6(±5.5) mm | Percentage of improvement from baseline, WOMAC Difficulty performing daily activities score, adjusted by […] of the Testing Drug Amount [6]: −62.4% | Change of WOMAC Difficulty performing daily activities score from baseline (±SEM) [6]: −23.1(±3.2) mm | Percentage of improvement from baseline, WOMAC Difficulty performing daily activities score [6]: −36.4% | Change of WOMAC Difficulty performing daily activities score from baseline (±SEM), adjusted by […] of the Testing Drug Amount [7]: −26.2(±4.1) mm | Percentage of improvement from baseline, WOMAC Difficulty performing daily activities score, adjusted by […] of the Testing Drug Amount [7]: −41.3% | Change of WOMAC Difficulty performing daily activities score from baseline (±SEM) [7]: −15.3(±2.4) mm | Percentage of improvement from baseline, WOMAC Difficulty performing daily activities score [7]: −24.1% | Change of WOMAC Difficulty performing daily activities score from baseline (±SEM), adjusted by […] of the Testing Drug Amount [8]: −36.2(±4.8) mm | Percentage of improvement from baseline, WOMAC Difficulty performing daily activities score, adjusted by […] of the Testing Drug Amount [8]: −57.1% | Percentage of improvement from baseline, WOMAC Difficulty performing daily activities score [8]: −33.3% | Change of WOMAC Difficulty performing daily activities score from baseline (±SEM), adjusted by […] of the Testing Drug Amount [9]: −41.3(±5.1) mm | Percentage of improvement from baseline, WOMAC Difficulty performing daily activities score, adjusted by […] of the Testing Drug Amount [9]: −65.2% | Change of WOMAC Difficulty performing daily activities score from baseline (±SEM) [9]: −24.1(±3.0) mm | Percentage of improvement from baseline, WOMAC Difficulty performing daily activities score [9]: −38.0% | Change of WOMAC Difficulty performing daily activities score from baseline (±SEM), adjusted by […] of the Testing Drug Amount [10]: −46.1(±5.5) mm | Percentage of improvement from baseline, WOMAC Difficulty performing daily activities score, adjusted by […] of the Testing Drug Amount [10]: −72.7% | Change of WOMAC Difficulty performing daily activities score from baseline (±SEM) [10]: −26.9(±3.2) mm | Percentage of improvement from baseline, WOMAC Difficulty performing daily activities score [10]: −42.4% | Change of WOMAC Difficulty performing daily activities score from baseline (±SEM), adjusted by […] of the Testing Drug Amount [11]: −35.0(±4.5) mm | Percentage of improvement from baseline, WOMAC Difficulty performing daily activities score, adjusted by […] of the Testing Drug Amount [11]: −60.9% | Change of WOMAC Difficulty performing daily activities score from baseline (±SEM) [11]: −20.4(±2.6) mm | Percentage of improvement from baseline, WOMAC Difficulty performing daily activities score [11]: −35.5% | Change of WOMAC Difficulty performing daily activities score from baseline (±SEM), adjusted by […] of the Testing Drug Amount [12]: −16.1(±3.3) mm | Percentage of improvement from baseline, WOMAC Difficulty performing daily activities score, adjusted by […] of the Testing Drug Amount [12]: −28.1% | Change of WOMAC Difficulty performing daily activities score from baseline (±SEM) [12]: −9.4(±1.9) mm | Percentage of improvement from baseline, WOMAC Difficulty performing daily activities score [12]: −16.4% | Change of WOMAC Difficulty performing daily activities score from baseline (±SEM), adjusted by […] of the Testing Drug Amount [13]: −23.0(±3.9) mm | Percentage of improvement from baseline, WOMAC Difficulty performing daily activities score, adjusted by […] of the Testing Drug Amount [13]: −40.0% | Change of WOMAC Difficulty performing daily activities score from baseline (±SEM) [13]: −13.4(±2.3) mm | Percentage of improvement from baseline, WOMAC Difficulty performing daily activities score [13]: −23.3% | Change of WOMAC Difficulty performing daily activities score from baseline (±SEM), adjusted by […] of the Testing Drug Amount (35 mg/knee (BID), Week 8 (day 56)): −31.6(±4.5) mm
